Like-named read-outs stand apart in the source and are kept apart here.
Experiments:
SMN2 mRNA = test: RT-qPCR splicing assay, SMN2 canonical junction (CJ) mRNA; assay type: cell-based, human; conditions: Homo sapiens
Procedure: (§1) The expression of a target mRNA was measured by detecting the formation of an exon-exon junction in the canonical transcript (CJ). A compound mediated exon-inclusion event was detected by observing an increase in formation of a new junction with an alternative exon (AJ). Real-time qPCR assays were used to detect these splicing switches and interrogate the potency of various compounds towards different target genes. A high-throughput real time quantitative PCR (RT-qPCR) assay was developed to measure these two isoforms of the mRNA (CJ and AJ) for exemplary genes, such as HTT, SMN2, and MYB, together with a control housekeeping gene, GAPDH or GUSB or PPIA, used for normalization. Briefly, the A673 or K562 cell line was treated with various compounds described herein (e.g., compounds of Formula (I)). After treatment, the levels of the HTT, MYB, or SMN2 mRNA targets were determined from each sample of cell lysate by cDNA synthesis followed by qPCR.
(§2) The A673 cell line was cultured in DMEM with 10% FBS. Cells were diluted with full growth media and plated in a 96-well plate (15,000 cells in 100 ul media per well). The plate was incubated at 37° C. with 5% CO2 for 24 hours to allow cells to adhere. An 11-point 3-fold serial dilution of the compounds was made in DMSO then diluted in media in an intermediate plate. Compounds were transferred from the intermediate plate to the cell plate with the top dose at a final concentration of 10 uM in the well. Final DMSO concentration was kept at or below 0.25%. The cell plate was returned to the incubator at 37° C. with 5% CO2 for an additional 24 hours.
(§3) The K562 cell line was cultured in IMDM with 10% FBS. For K562, cells were diluted with full growth media and plated in either a 96-well plate (50,000 cells in 50 uL media per well) or a 384-well plate (8,000-40,000 cells in 45 uL media per well). An 11-point 3-fold serial dilution of the compounds were made in DMSO then diluted in media in an intermediate plate. Compound was transferred from the intermediate plate to the cell plate with the top dose at a final concentration of 10 uM in the well. Final DMSO concentration was kept at or below 0.25%. Final volume was 100 uL for 96-well plate and 50 uL for 384-well plate. The cell plate was then placed in an incubator at 37° C. with 5% CO2 for 24 hours.
(§4) The cells were then gently washed with 50 uL-100 uL cold PBS before proceeding to addition of lysis buffer. 30 uL-50 uL of room temperature lysis buffer with DNAse I (and optionally RNAsin) was added to each well. Cells were shaken/mixed thoroughly at room temperature for 5-10 minutes for lysis to take place and then 3 uL-5 uL of room temperature stop solution was added and wells were shaken/mixed again. After 2-5 minutes, the cell lysate plate was transferred to ice for RT-qPCR reaction setup. The lysates could also be frozen at −80° C. for later use.
(§5) In some cases, a direct lysis buffer was used. An appropriate volume of 3× lysis buffer (10 mM Tris, 150 mM NaCl, 1.5%-2.5% Igepal and 0.1-1 U/uL RNAsin, pH 7.4) was directly added to either K562 or A673 cells in media and mixed by pipetting 3 times. The plates were then incubated at room temperature with shaking/rocking for 20-50 minutes to allow for lysis to take place. After this time, the cell lysate plate was transferred to ice to set up for the RT-qPCR reactions. The lysates could also be frozen at −80° C. for later use.
(§6) To set up 10 uL RT-qPCR reactions, cell lysates were transferred to 384-well qPCR plates containing the master mix according to the table below. The plates were sealed, gently vortexed, and spun down before the run. The volumes were adjusted accordingly in some instances where the reaction was carried in 20 uL. The table below summarizes the components of the RT-qPCR reactions:
(§7) The RT-qPCR reaction was performed using a QuantStudio (ThermoFisher) under the following fast cycling conditions.

Target C = test: RT-qPCR splicing assay panel, Target C canonical junction (CJ) mRNA; assay type: cell-based, human; conditions: Homo sapiens
Procedure: as §1, §2, §3, §4, §5, §6, §7

MYB mRNA = test: RT-qPCR splicing assay, MYB canonical junction (CJ) and alternative junction (AJ) mRNA; assay type: cell-based, human; conditions: Homo sapiens; for AC50: increase in MYB alternative junction (AJ) mRNA, read-out: MYB AJ AC50
Procedure: as §1
(§8) • Cells-to-CT 1-step kit: ThermoFisher A25602, Cells-to-CT lysis reagent: ThermoFisher 4391851C, TaqMan™ Fast Virus 1-Step Master Mix: ThermoFisher 4444436 • GAPDH: VIC-PL, ThermoFisher 4326317E (Assay: Hs99999905_m1)—used for K562/suspension cell lines • GUSB: VIC-PL, ThermoFisher 4326320E (Assay: Hs99999908_m1)—used for K562/suspension cell lines • PPIA: VIC-PL, ThermoFisher 4326316E (Assay: Hs99999904_m1)—used for A673/adherent cell lines
as §2, §3, §4, §5

HTT mRNA = test: RT-qPCR splicing assay, HTT canonical junction (CJ) and alternative junction (AJ) mRNA; assay type: cell-based, human; conditions: Homo sapiens; for AC50: increase in HTT alternative junction (AJ) mRNA, read-out: HTT AJ AC50
Procedure: as §1, §8, §2, §3, §4, §5

[1] = test system: K562 (human chronic myelogenous leukemia) cells; test: Cell Titer Glo 2.0 cell viability assay; assay type: cell-based; conditions: K562 cells, 72 hours, Cell Titer Glo 2.0, read-out: K562 GI50
[2] = canonical junction qPCR panel, Table 5, read-out: SMN2 (decrease in CJ mRNA levels, IC50)
[3] = canonical junction qPCR panel, Table 5, read-out: Target C (decrease in CJ mRNA levels, IC50)
[4] = canonical junction qPCR panel, Table 5, read-out: MYB (decrease in CJ mRNA levels, IC50)
[5] = decrease in MYB canonical junction (CJ) mRNA, RT-qPCR, read-out: MYB CJ IC50
[6] = decrease in HTT canonical junction (CJ) mRNA, RT-qPCR, read-out: HTT CJ IC50
[7] = canonical junction qPCR panel, Table 5, read-out: HTT (decrease in CJ mRNA levels, IC50)

Row | Compound | IC50 (SMN2 mRNA; [2]) [µM] | IC50 (Target C; [3]) [µM] | IC50 (MYB mRNA; [4]) [µM] | IC50 (MYB mRNA; [5]) [µM] | AC50 (MYB mRNA; RT-qPCR) [µM] | IC50 (HTT mRNA; [6]) [µM] | AC50 (HTT mRNA; RT-qPCR) [µM] | IC50 (HTT mRNA; [7]) [µM] | GI50 ([1]; Homo sapiens, K562, 72 h) [µM] | GI50 [1] [µM] | IC50 (SMN2 mRNA; Table 5 panel, canonical junction qPCR, compound concentration having 50% response in CJ decrease, read-out: SMN2 IC50 (decrease in CJ mRNA levels)) [µM] | IC50 (Target C; Table 5 panel, canonical junction qPCR, compound concentration having 50% response in CJ decrease, read-out: Target C IC50 (decrease in CJ mRNA levels)) [µM] | IC50 (MYB mRNA; Table 5 panel, canonical junction qPCR, compound concentration having 50% response in CJ decrease, read-out: MYB IC50 (decrease in CJ mRNA levels)) [µM] | IC50 (HTT mRNA; Table 5 panel, canonical junction qPCR, compound concentration having 50% response in CJ decrease, read-out: HTT IC50 (decrease in CJ mRNA levels)) [µM]
1 | Cc1cn2nc(-c3ccc4c(=O)n([C@H]5CCNC6(CCC6)C5)ccc4n3)cc(C)c2n1 [Compound 1518] | < 0.1 | 0.1 to 1 | 0.1 to 1 | < 0.1 | 0.1 to 1 | 0.1 to 1 | 0.1 to 1 | 0.1 to 1 | 0.1 to 1 |  |  |  |  | 
2 | Cc1cn2nc(-c3ccc4c(=O)n(C56CCC(N)(CC5)C6)ccc4n3)cc(C)c2n1 [Compound 1504, 6-(4-aminonorbornane-1-yl)-2-(2,8-dimethylimidazo[1,2-b]pyridazin-6-yl)-1,6-naphthyridin-5-one] | < 0.1 | 1 to 10 | < 0.1 | < 0.1 | < 0.1 | 1 to 10 | 0.1 to 1 | 0.1 to 1 | 0.1 to 1 |  |  |  |  | 
3 | Cc1cn2nc(-c3ccc4c(=O)n(C5CCNC6(CC6)C5)ncc4n3)cc2c(C)n1 (centres unmarked) [Compound 1547, 6-(4-azaspiro[2.5]octan-7-yl)-2-(4,6-dimethylpyrazolo[1,5-a]pyrazin-2-yl)pyrido[2,3-d]pyridazin-5-one] | 0.1 to 1 | 1 to 10 | 1 to 10 | 1 to 10 | 1 to 10 | 1 to 10 | 0.1 to 1 | 0.1 to 1 | 1 to 10 |  |  |  |  | 
4 | Cc1cn2cc(-c3ncc4c(=O)n([C@@H]5CCNC(C)(C)C5)ccc4n3)cc(F)c2n1 [Compound 1496, 6-[(4R)-2,2-dimethyl-4-piperidyl]-2-(8-fluoro-2-methyl-imidazo[1,2-a]pyridin-6-yl)pyrido[4,3-d]pyrimidin-5-one] | < 0.1 | 1 to 10 | 0.1 to 1 | 0.1 to 1 | 0.1 to 1 | 1 to 10 | 0.1 to 1 | 0.1 to 1 | 0.1 to 1 |  |  |  |  | 
5 | Cc1cn2cc(-c3ncc4c(=O)n([C@@H]5CCN[C@@H](C)C5)ccc4n3)cc(F)c2n1 [Compound 1498, 2-(8-fluoro-2-methyl-imidazo[1,2-a]pyridin-6-yl)-6-[(2S,4R)-2-methyl-4-piperidyl]pyrido[4,3-d]pyrimidin-5-one] | < 0.1 | 1 to 10 | 0.1 to 1 | < 0.1 | 0.1 to 1 | 1 to 10 | 1 to 10 | 1 to 10 | 0.1 to 1 |  |  |  |  | 
6 | Cc1cn2cc(-c3cc(C)c4c(=O)n(C5CCNCC5)ccc4n3)cc(F)c2n1 [Compound 1524, 2-(8-fluoro-2-methyl-imidazo[1,2-a]pyridin-6-yl)-4-methyl-6-(4-piperidyl)-1,6-naphthyridin-5-one] | < 0.1 | 0.1 to 1 | 0.1 to 1 | < 0.1 | 0.1 to 1 | 0.1 to 1 | 0.1 to 1 | 0.1 to 1 | 0.1 to 1 |  |  |  |  | 
7 | Cc1c(O)c(-c2ncc3c(=O)n([C@H]4CC[C@H](N)C4)ccc3n2)cc2cn(C)nc12 [Compound 1521] | < 0.1 | 1 to 10 | 0.1 to 1 | 0.1 to 1 | 0.1 to 1 | 1 to 10 | 0.1 to 1 | 0.1 to 1 |  | 0.1 to 1 |  |  |  | 
8 | Cc1cn2cc(-c3ncc4c(=O)n([C@@H]5C[C@@H](C)N[C@@H](C)C5)ccc4n3)cc(F)c2n1 [Compound 1480, 6-[(2R,6S)-2,6-dimethyl-4-piperidyl]-2-(8-fluoro-2-methyl-imidazo[1,2-a]pyridin-6-yl)pyrido[4,3-d]pyrimidin-5-one] | 0.1 to 1 | 0.1 to 1 | 0.1 to 1 | 0.1 to 1 | 0.1 to 1 | 0.1 to 1 | 0.1 to 1 | 0.1 to 1 | 0.1 to 1 |  |  |  |  | 
9 | Cc1cn2nc(-c3ccc4c(=O)n([C@@H]5CCN[C@@H](C6CC6)C5)ncc4n3)cc(C)c2n1 [Compound 1551] | < 0.1 | 0.1 to 1 | 0.1 to 1 | 0.1 to 1 | 0.1 to 1 | 0.1 to 1 | 0.1 to 1 | 0.1 to 1 | 0.1 to 1 |  |  |  |  | 
10 | Cc1cn2cc(-c3ncc4c(=O)n([C@H]5CCN[C@@H](C)C5)ccc4n3)cc(F)c2n1 [Compound 1500, 2-(8-fluoro-2-methyl-imidazo[1,2-a]pyridin-6-yl)-6-[(2S,4S)-2-methyl-4-piperidyl]pyrido[4,3-d]pyrimidin-5-one] | < 0.1 | 0.1 to 1 | < 0.1 | < 0.1 | < 0.1 | 0.1 to 1 | 0.1 to 1 | 0.1 to 1 | 0.1 to 1 |  |  |  |  | 
11 | Cn1cc2cc(-c3ncc4c(=O)n(C56CCC(N)(CC5)C6)ccc4n3)cc(F)c2n1 [Compound 1489, 6-(4-aminonorbornane-1-yl)-2-(7-fluoro-2-methyl-indazol-5-yl)pyrido[4,3-d]pyrimidin-5-one] | < 0.1 | 1 to 10 | 0.1 to 1 | 0.1 to 1 | 0.1 to 1 | 1 to 10 | 1 to 10 | 1 to 10 | 0.1 to 1 |  |  |  |  | 
12 | Cc1c(O)c(-c2ncc3c(=O)n([C@H]4C[C@H]5COC[C@@H](C4)N5)ccc3n2)cc2cn(C)nc12 [Compound 1472] | 0.1 to 1 | 1 to 10 | 0.1 to 1 | 0.1 to 1 | 0.1 to 1 | 1 to 10 | 1 to 10 | 1 to 10 | 1 to 10 |  |  |  |  | 
13 | Cc1cn2nc(-c3ccc4nc(NC5CCNCC5)[nH]c(=O)c4c3)cc(C)c2n1 [Compound 192] |  |  |  | > 10 | > 10 | > 10 | > 10 |  |  |  | > 10 | > 10 | > 10 | > 10

— US20250332173A1, “COMPOUNDS AND METHODS FOR MODULATING NUCLEIC ACID SPLICING” (REMIX THERAPEUTICS INC., priority 2021, published 2025)
